The text below walks through data of patent US10907219B2, “Compositions and methods for controlling cellular function” (STC.UNM, priority 2014, dated 2021).

Series [1] concerns myr-ABI and EGFP-PYL-Tiam1 in CHO cells. Description: Live cell imaging of cytoskeletal remodeling. The series is classed as cell-based. As to conditions: 405 nm irradiation. The protocol: (§1) To test the uncaging process in live cell experiments, EGFP nuclear export experiments were carried out by transfecting CHO cells with EGFP-PYL and NES-ABI constructs. The cells were then either treated with 10 μM ABA-DEACM and with or without 405 nm light irradiation under a confocal microscope, or with no drug but irradiated. The subcellular location of EGFP was followed for 20 minutes after irradiation. […] We also tested the use of ABA-DEACM in live cell imaging to induce cell morphology changes. We transfected CHO cells in a culture chamber with myr-ABI and EGFP-PYLTiam1 constructs.
Live cell confocal microscopy irradiation and imaging: EGFP fluorescence of CHO cells was detected with an LSM 510 Meta confocal mounted on an AxioObserver inverted microscope (Carl Zeiss AG, Oberkochen, Germany). ABA-DEACM was uncaged by using a 405 nm UV laser (25 mW) set to 25% power for approximately three seconds. To image, fluorescence was excited with the 488 nm line of an argon laser (30 mW) with laser power attenuated to 50%. EGFP emission was collected with a FITC filter. Live cells were plated in 8-well coverslip-bottom culture chambers in medium (200 μL) and maintained at 37° C. with an objective lens heater (Bioptechs Inc., Butler, Pa.). Culture medium was exchanged with OptiMEM (GIBCO, Life Technologies, Carlsbad, Calif.) with caged ABA or no drug prior to imaging. Images were acquired every 10 to 20 seconds in different experiments with a 63×5/1.2 NA water objective.

Series [2] has as its system EGFP-PYL and NES-ABI in CHO cells. Description: Live cell confocal EGFP nuclear export. The series is classed as cell-based. Conditions: 10 μM, 405 nm irradiation, followed 20 minutes. The protocol: as §1
Live cell confocal microscopy irradiation and imaging: EGFP fluorescence of CHO cells was detected with an LSM 510 Meta confocal mounted on an AxioObserver inverted microscope (Carl Zeiss AG, Oberkochen, Germany). […] To image, fluorescence was excited with the 488 nm line of an argon laser (30 mW) with laser power attenuated to 50%. […]
Image analysis of fluorescence intensity in nuclear export experiments: Generated images were analyzed for fluorescence intensity by using Slide Book v.6 software (Intelligent Imaging Innovations, Inc., Denver, Colo.). Equal sized regions of interest were analyzed from the cytoplasm and the nucleus to compare fluorescent intensity of EGFP in three cells for each condition from images taken every 20 seconds for a duration of 20 minutes.

The nature of series [3]: Chemical stability of ABA-HP in HEPES/DMSO (HPLC). It counts as physicochemical. Conditions: 1 mM, 50% HEPES/DMSO pH 7.4, 37° C., 24 hours. The protocol:
(§2) Chemical stability and reactivity of ABA-HP towards H2O2: ABA-HP chemical stability: 1 mM ABA-HP (in DMSO) was incubated in 50% HEPES/DMSO (10 mM HEPES, pH 7.4) for 24 hours at 37° C. HPLC results were detected at 0 minutes, 20 minutes, 40 minutes, 60 minutes, 80 minutes, 100 minutes, 120 minutes, 240 minutes, and 24 hours. ABA-HP reactivity towards H2O2: 1 mM ABA-HP was incubated with 5 mM (5 eq) H2O2 in 50% HEPES/DMSO (10 mM HEPES, pH 7.4) at 37° C. HPLC results were detected at 0 minutes, 20 minutes, 40 minutes, 80 minutes, 100 minutes, 120 minutes, and 240 minutes (FIGS. 1c, 4a and 4b). 100 mM H2O2 was diluted with 11 μL of 30% (10 M) stock H2O2 (VWR) and 989 μL of ddH2O. […] HPLC chromatograms were acquired using an ULTIMATE 3000 LC System (Thermo Fisher Scientific, Waltham, Mass.) with ACCLAIM 120 Å, C18, 3 μm analytical (4.6×100 mm) column (Thermo Fisher Scientific, Waltham, Mass.). Chromatographic conditions: eluent A: 0.1% v/v TFA in water; eluent B: 0.1% v/v TFA in acetonitrile. ABA in ethanol or ABA-HP in DMSO was eluted at a flow rate of 0.750 ml/min monitored at a wavelength of 260 nm. 0-12 min (linear): 95% A, 5% B to 5% A, 95% B; 12-15 min: 5% A, 95% B; 15-17 min (linear): 5% A, 95% B to 95% A, 5% B. Generation of ABA was quantified by the peak area of ABA out of the total peak area.

Series [4] is described as follows: ABA-HP reactivity towards H2O2 (HPLC). The series is classed as physicochemical. As to conditions: 1 mM + H2O2 (5 eq), 50% HEPES/DMSO, 37° C. As to the method: as §2
The nature of series [5]: Reaction selectivity of ABA-HP versus different molecules (HPLC). It counts as physicochemical. As to conditions: four hours. The protocol: Reaction selectivity versus different molecules: 100 μM ABA-HP was incubated with 100 μM (1 eq) of different molecules in 50% HEPES/DMSO (pH 7.4) at 37° C. for 4 hours and detected by HPLC. H2S was generated by 100 μM Na2S solution in HEPES buffer, which can slowly release H2S. .OH and .OtBu were generated by reaction of Fe^2+ with H2O2 or tert-butyl hydroperoxide (TBHP), respectively. HPLC condition was the same as the stability and reactivity test of ABA-HP.

For the compound `CCN(CC)c1ccc2c(COC(=O)/C=C(C)\C=C\[C@@]3(O)C(C)=CC(=O)CC3(C)C)cc(=O)oc2c1` [ABA-DEACM], in series [1], the “start of membrane ruffling after uncaging” value came out at 5 min; the “time to formation of fillopodia and lemellopodia” value was at most 15 min; the “time to formation of filopodia and lamellipodia” value was at most 15 min. The “nuclear export of EGFP fusion proteins” value in series [2] was “observed within a few minutes”.
For `CC1=CC(=O)CC(C)(C)[C@@]1(O)/C=C/C(C)=C\C(=O)OCc1ccc(B2OC(C)(C)C(C)(C)O2)cc1` [ABA-HP], in series [3], the “chemical stability in biological buffer” value is “stable in biological buffer at 37 °C throughout the 24-hour observation period”. Besides, in series [4], the “completion of transformation to ABA” value is “completed in four hours” and the “start of conversion back to ABA” value is listed as “within minutes”. The “stability against other ROS, H2S, metal ions” value in series [5] (100 μM ABA-HP, molecules at 100 μM, 37° C.) is “stable against all molecules tested at 100 μM”. Moreover, in series [5] (Cu^+ and Cu^2+ at 10 μM), the “effect of Cu^+ and Cu^2+” value was “no effects”. The “cleavage by Cu^+ and Cu^2+” value in series [5] (Cu^+ and Cu^2+ at 100 μM) was “minimal amount of cleavage”.
